Laboratory results published in ChEMBL document CHEMBL1201862, “PubChem BioAssay data set” (2004).
“And” between values parts separate entries of the source, which are not always exact repeats. Identical values can stand only once.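 Assay format: 96-well plates, 48-hour exposure. The concentration for 50% growth inhibition is given as GI50.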 The source made the active and inactive calls. Rule as the data show it: active = GI50 up to about 1.1 µM and inactive = higher.

Key:
Test in all cases: NCI tumour cell line growth inhibition, 48 h
HOP-92 = tested on: HOP-92
ACHN = tested on: ACHN
U-251 = tested on: U-251
TK-10 = tested on: TK-10
NCI-H226 = tested on: NCI-H226
HCT-116 = tested on: HCT-116
XF498 = tested on: XF498
A498 = tested on: A498
SF-539 = tested on: SF-539
LOX IMVI = tested on: LOX IMVI
IGROV-1 = tested on: IGROV-1
KM-20L2 = tested on: KM-20L2
RPMI-8226 = tested on: RPMI-8226
SK-MEL-2 = tested on: SK-MEL-2
Malme-3M = tested on: Malme-3M
SK-MEL-5 = tested on: SK-MEL-5
NCI-H460 = tested on: NCI-H460
OVCAR-4 = tested on: OVCAR-4
RXF 393 = tested on: RXF 393
UACC-257 = tested on: UACC-257
LXFL 529 = tested on: LXFL 529
NCI-H522 = tested on: NCI-H522
EKVX = tested on: EKVX
CCRF-CEM = tested on: CCRF-CEM
UO-31 = tested on: UO-31
SR = tested on: SR
HT-29 = tested on: HT-29
NCI-H23 = tested on: NCI-H23
SK-MEL-28 = tested on: SK-MEL-28
KM12 = tested on: KM12
HCT-15 = tested on: HCT-15
SW-620 = tested on: SW-620
M19-MEL = tested on: M19-MEL
SNB-19 = tested on: SNB-19
OVCAR-5 = tested on: OVCAR-5
SNB-78 = tested on: SNB-78
DLD-1 = tested on: DLD-1
A549 = tested on: A549
HCC 2998 = tested on: HCC 2998
M14 = tested on: M14
SN12C = tested on: SN12C
BT-549 = tested on: BT-549
SK-OV-3 = tested on: SK-OV-3
SF-268 = tested on: SF-268
COLO 205 = tested on: COLO 205
786-0 = tested on: 786-0
PC-3 = tested on: PC-3
Hs-578T = tested on: Hs-578T
SNB-75 = tested on: SNB-75
K562 = tested on: K562
MCF7 = tested on: MCF7
MDA-MB-435 = tested on: MDA-MB-435
HL-60 = tested on: HL-60
NCI/ADR-RES = tested on: NCI/ADR-RES
SF-295 = tested on: SF-295
MOLT-4 = tested on: MOLT-4
MDA-MB-231 = tested on: MDA-MB-231
MDA-N = tested on: MDA-N
HOP-62 = tested on: HOP-62
OVCAR-3 = tested on: OVCAR-3
DU-145 = tested on: DU-145
T47D = tested on: T47D
CAKI-1 = tested on: CAKI-1
OVCAR-8 = tested on: OVCAR-8
UACC-62 = tested on: UACC-62

**Q.** Cc1ccc(SSCC(O)C(O)CSSc2ccc(C)cc2)cc1 (centres undefined) was tested. Which GI50 (HOP-92) did it give?
**A.** 17 µM (inactive) and 11.9 µM (inactive)

**Q.** And the GI50 (ACHN)?
**A.** 11.2 µM (inactive) and 15.7 µM (inactive)

**Q.** What about the GI50 (U-251) of the same compound?
**A.** 2.03 µM (inactive) and 2.23 µM (inactive)

**Q.** What about the GI50 (TK-10) of the same compound?
**A.** 15.6 µM (inactive) and 13.2 µM (inactive)

**Q.** And the GI50 (NCI-H226)?
**A.** 15.2 µM (inactive) and 15.1 µM (inactive)

**Q.** What about the GI50 (HCT-116) of the same compound?
**A.** 12.1 µM (inactive) and 7.28 µM (inactive)

**Q.** What about the GI50 (XF498) of the same compound?
**A.** 17.2 µM (inactive) and 13.7 µM (inactive)

**Q.** What about the GI50 (A498) of the same compound?
**A.** 4510 nM (inactive)

**Q.** What about the GI50 (SF-539) of the same compound?
**A.** 3.42 µM (inactive) and 3.02 µM (inactive)

**Q.** And the GI50 (LOX IMVI)?
**A.** 1.3 µM (inactive) and 1.89 µM (inactive)

**Q.** And the GI50 (IGROV-1)?
**A.** 2.99 µM (inactive) and 2.14 µM (inactive)

**Q.** And the GI50 (KM-20L2)?
**A.** 13.1 µM (inactive) and 11.1 µM (inactive)

**Q.** And the GI50 (RPMI-8226)?
**A.** 3.66 µM (inactive) and 3.26 µM (inactive)

**Q.** And the GI50 (SK-MEL-2)?
**A.** 8180 nM (inactive)

**Q.** And the GI50 (Malme-3M)?
**A.** 19 µM (inactive) and 15.3 µM (inactive)

**Q.** What about the GI50 (SK-MEL-5) of the same compound?
**A.** 7.31 µM (inactive) and 12.6 µM (inactive)

**Q.** What about the GI50 (NCI-H460) of the same compound?
**A.** 17.5 µM (inactive) and 18.1 µM (inactive)

**Q.** What about the GI50 (OVCAR-4) of the same compound?
**A.** 13.4 µM (inactive) and 14.3 µM (inactive)

**Q.** And the GI50 (RXF 393)?
**A.** 3.92 µM (inactive) and 4.15 µM (inactive)

**Q.** And the GI50 (UACC-257)?
**A.** 15.6 µM (inactive) and 14.4 µM (inactive)

**Q.** What about the GI50 (LXFL 529) of the same compound?
**A.** 10.6 µM (inactive) and 6.01 µM (inactive)

**Q.** What about the GI50 (NCI-H522) of the same compound?
**A.** 1.82 µM (inactive) and 1.76 µM (inactive)

**Q.** What about the GI50 (EKVX) of the same compound?
**A.** 14.1 µM (inactive) and 18.1 µM (inactive)

**Q.** What about the GI50 (CCRF-CEM) of the same compound?
**A.** 1140 nM (inactive)

**Q.** And the GI50 (UO-31)?
**A.** 4.08 µM (inactive) and 4.26 µM (inactive)

**Q.** What about the GI50 (SR) of the same compound?
**A.** 3.55 µM (inactive) and 3.29 µM (inactive)

**Q.** What about the GI50 (HT-29) of the same compound?
**A.** 13.3 µM (inactive) and 18.5 µM (inactive)

**Q.** And the GI50 (NCI-H23)?
**A.** 5.94 µM (inactive) and 11.3 µM (inactive)

**Q.** What about the GI50 (SK-MEL-28) of the same compound?
**A.** 13.9 µM (inactive) and 14.9 µM (inactive)

**Q.** What about the GI50 (KM12) of the same compound?
**A.** 9.48 µM (inactive) and 11.1 µM (inactive)

**Q.** And the GI50 (HCT-15)?
**A.** 14100 nM and 13100 nM

**Q.** And the GI50 (SW-620)?
**A.** 7.55 µM (inactive) and 14.2 µM (inactive)

**Q.** And the GI50 (M19-MEL)?
**A.** 16.5 µM (inactive) and 11.6 µM (inactive)

**Q.** And the GI50 (SNB-19)?
**A.** 15.1 µM (inactive) and 14.6 µM (inactive)

**Q.** And the GI50 (OVCAR-5)?
**A.** 16.6 µM (inactive) and 22.8 µM (inactive)

**Q.** And the GI50 (SNB-78)?
**A.** 13700 nM (inactive)

**Q.** What about the GI50 (DLD-1) of the same compound?
**A.** 15 µM (inactive) and 14.1 µM (inactive)

**Q.** And the GI50 (A549)?
**A.** 10.6 µM (inactive) and 10.9 µM (inactive)

**Q.** And the GI50 (HCC 2998)?
**A.** 15 µM (inactive) and 14.2 µM (inactive)

**Q.** What about the GI50 (M14) of the same compound?
**A.** 7.29 µM (inactive) and 5.58 µM (inactive)

**Q.** C[C@@H]1C[C@H](O)[C@]2(O)O[C@@H]3C[C@@]4(C=O)[C@@H](CC=C5[C@@H]4CC[C@]4(C)[C@@H](C6=CC(=O)OC6)CC[C@]54O)C[C@H]3O[C@@H]2O1 was tested. Which GI50 (SN12C) did it give?
**A.** < 10 nM (active)

**Q.** And the GI50 (HOP-92)?
**A.** 27.7 nM (active)

**Q.** And the GI50 (ACHN)?
**A.** < 10 nM (active)

**Q.** What about the GI50 (U-251) of the same compound?
**A.** < 21.4 nM (active)

**Q.** And the GI50 (TK-10)?
**A.** < 10 nM (active)

**Q.** What about the GI50 (BT-549) of the same compound?
**A.** < 15 nM (active)

**Q.** What about the GI50 (SK-OV-3) of the same compound?
**A.** 42.6 nM (active)

**Q.** And the GI50 (NCI-H226)?
**A.** < 19.1 nM (active)

**Q.** And the GI50 (HCT-116)?
**A.** 14.3 nM (active)

**Q.** What about the GI50 (SF-268) of the same compound?
**A.** 10.3 nM (active)

**Q.** And the GI50 (COLO 205)?
**A.** 98.4 nM (active)

**Q.** What about the GI50 (A498) of the same compound?
**A.** < 10 nM (active)

**Q.** What about the GI50 (SF-539) of the same compound?
**A.** < 16.6 nM (active)

**Q.** What about the GI50 (LOX IMVI) of the same compound?
**A.** 17.6 nM (active)

**Q.** What about the GI50 (IGROV-1) of the same compound?
**A.** < 11.8 nM (active)

**Q.** And the GI50 (786-0)?
**A.** 12.4 nM (active)

**Q.** What about the GI50 (RPMI-8226) of the same compound?
**A.** < 18 nM (active)

**Q.** What about the GI50 (SK-MEL-2) of the same compound?
**A.** 98 nM (active)

**Q.** And the GI50 (Malme-3M)?
**A.** < 10 nM (active)

**Q.** And the GI50 (PC-3)?
**A.** 20 nM (active)

**Q.** What about the GI50 (Hs-578T) of the same compound?
**A.** < 10 nM (active)

**Q.** What about the GI50 (SNB-75) of the same compound?
**A.** 112 nM (active)

**Q.** And the GI50 (K562)?
**A.** < 23.1 nM (active)

**Q.** What about the GI50 (MCF7) of the same compound?
**A.** < 18.8 nM (active)

**Q.** What about the GI50 (SK-MEL-5) of the same compound?
**A.** < 16.9 nM (active)

**Q.** And the GI50 (MDA-MB-435)?
**A.** 33.2 nM (active)

**Q.** And the GI50 (HL-60)?
**A.** 17.1 nM (active)

**Q.** What about the GI50 (NCI-H460) of the same compound?
**A.** < 12.9 nM (active)

**Q.** What about the GI50 (OVCAR-4) of the same compound?
**A.** < 10.6 nM (active)

**Q.** And the GI50 (RXF 393)?
**A.** < 19.6 nM (active)

**Q.** What about the GI50 (UACC-257) of the same compound?
**A.** 70.2 nM (active)

**Q.** And the GI50 (NCI/ADR-RES)?
**A.** < 20.2 nM (active)

**Q.** What about the GI50 (NCI-H522) of the same compound?
**A.** < 10 nM (active)

**Q.** What about the GI50 (EKVX) of the same compound?
**A.** < 10 nM (active)

**Q.** And the GI50 (CCRF-CEM)?
**A.** < 10 nM (active)

**Q.** And the GI50 (UO-31)?
**A.** < 24.7 nM (active)

**Q.** And the GI50 (SR)?
**A.** < 15 nM (active)

**Q.** What about the GI50 (SF-295) of the same compound?
**A.** < 19.1 nM (active)

**Q.** And the GI50 (HT-29)?
**A.** < 21.2 nM (active)

**Q.** And the GI50 (MOLT-4)?
**A.** < 10 nM (active)

**Q.** And the GI50 (NCI-H23)?
**A.** 11.8 nM (active)

**Q.** What about the GI50 (SK-MEL-28) of the same compound?
**A.** 128 nM (active)

**Q.** And the GI50 (KM12)?
**A.** 33.7 nM (active)

**Q.** And the GI50 (HCT-15)?
**A.** 17.5 nM

**Q.** And the GI50 (SW-620)?
**A.** < 22.7 nM (active)

**Q.** What about the GI50 (SNB-19) of the same compound?
**A.** 218 nM (active)

**Q.** And the GI50 (MDA-MB-231)?
**A.** 144 nM (active)

**Q.** What about the GI50 (OVCAR-5) of the same compound?
**A.** 95.1 nM (active)

**Q.** What about the GI50 (MDA-N) of the same compound?
**A.** 42 nM (active)

**Q.** What about the GI50 (HOP-62) of the same compound?
**A.** < 12.1 nM (active)

**Q.** What about the GI50 (OVCAR-3) of the same compound?
**A.** 13.1 nM (active)

**Q.** What about the GI50 (DU-145) of the same compound?
**A.** < 16.3 nM (active)

**Q.** What about the GI50 (A549) of the same compound?
**A.** < 10.9 nM (active)

**Q.** And the GI50 (T47D)?
**A.** 21.8 nM (active)

**Q.** What about the GI50 (CAKI-1) of the same compound?
**A.** < 12.5 nM (active)

**Q.** And the GI50 (OVCAR-8)?
**A.** < 20.5 nM (active)

**Q.** And the GI50 (HCC 2998)?
**A.** 67.8 nM (active)

**Q.** And the GI50 (UACC-62)?
**A.** 44.9 nM (active)

**Q.** And the GI50 (M14)?
**A.** 57.4 nM (active)
